This passage reports IC50 and EC50 results from patent US20230279008A1, “PTGR2 INHIBITORS AND THEIR USE” (National Health Research Institutes, priority 2022, published 2023).

The target in experiment [1] is T1, human PTGR2 (Homo sapiens (Human), UniProt Q8N8N7). As to the kind of experiment: In vitro PTGR2 enzyme activity assay (NADPH decrease, Glo-NADPH luminescence). The experiment is classed as biochemical. The settings on record: 15-keto-PGE2 20 μM, NADPH 20 μM, pH 7.3. Here is the method:
In vitro enzyme activity was measured to determine the half maximal inhibitory concentration (IC50) of compounds of this invention as PTGR2 inhibitors. The reduction of 15-keto-PGE2 by PTGR2 requires NADPH. The decrease of NADPH during the reduction reaction indicates […] of PTGR2 and thus is used to calculate the IC50 of a PTGR2 inhibitor. […] The resultant mixture was pre-incubated at room temperature for 15 minutes. After the incubation, 15-keto-PGE2 was added to a final concentration of 20 μM, together with NADPH (20 μM, final concentration) and a Glo-NADPH reagent (commercially available from Promega Corporation, Madison, Wis.).

Experiment [2] addresses T1, human PTGR2. Briefly: Cell-based GAL4-PPAR luciferase reporter assay in HEK293T cells transfected with human PTGR2. The settings on record: UASG reporter, GAL4-PPAR and human PTGR2-Tag vectors, luciferase normalized to TK-Rluc. Here is the method:
HEK293T cells were seeded at 1×10^5 cells/well in a 24-well plate. […] Cells were treated and harvested in two batches, one after 24 hours and another after 48 hours. The luciferase activity was measured by a Luc-Pair™ Duo-Luciferase HS Assay Kit (commercially available from Promega Corporation) and normalized to the TK-Rluc reporter signal, which was recorded and used to calculate the EC50 value of a PTGR2 inhibitor.
A general note: A reporter such as luciferase makes a cellular process visible.

T1 sequence (Q8N8N7 whole entry): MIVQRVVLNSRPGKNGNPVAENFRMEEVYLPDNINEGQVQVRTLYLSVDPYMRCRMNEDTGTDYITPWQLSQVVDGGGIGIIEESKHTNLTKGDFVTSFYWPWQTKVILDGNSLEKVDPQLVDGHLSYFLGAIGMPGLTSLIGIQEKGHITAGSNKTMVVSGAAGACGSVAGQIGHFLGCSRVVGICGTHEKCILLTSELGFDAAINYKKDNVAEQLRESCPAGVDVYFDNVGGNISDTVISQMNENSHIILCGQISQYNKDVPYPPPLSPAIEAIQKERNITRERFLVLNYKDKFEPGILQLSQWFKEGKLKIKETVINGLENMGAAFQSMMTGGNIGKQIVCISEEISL

Take `COc1ccccc1N1CCN(Cc2nc3[nH]c(C)c(Cc4ccc(Cl)cc4)c(=O)n3n2)CC1` [Compound 1, 6-(4-chlorobenzyl)-2-((4-(2-methoxyphenyl)piperazin-1-yl)methyl)-5-methyl-[1,2,4]triazolo[1,5-a]pyrimidin-7(4H)-one]: the IC50 (commonly the concentration needed to halve the response being measured) in experiment [1] turned out to be 0.2 nM. For the same molecule, in experiment [2], the EC50 – broadly, the midpoint of the concentration-response curve – came to 874 nM.
On to `CCOc1ccccc1N1CCN(C(=O)CSc2nc(C(C)C)cc(=O)[nH]2)CC1` [Compound 63, 2-((2-(4-(2-ethoxyphenyl)piperazin-1-yl)-2-oxoethyl)thio)-6-isopropylpyrimidin-4(3H)-one], for which inhibition in experiment [1] was half-maximal at 81.8 nM (IC50). The molecule further gave a half-maximal effective concentration (EC50) in experiment [2] of 164 nM.
The molecule `Cc1[nH]c2nc(CN3CCN(c4ccccc4)CC3)nn2c(=O)c1Cc1cccc(Cl)c1` [Compound 12, 6-(3-chlorobenzyl)-5-methyl-2-((4-phenylpiperazin-1-yl)methyl)-[1,2,4]triazolo[1,5-a]pyrimidin-7(3H)-one] came in with an IC50 in experiment [1] of 0.01 nM. The midpoint of the response in experiment [2], the EC50, lay at 233 nM.
Turning to `CCCc1cc(=O)[nH]c(SCC(=O)N2CCN(c3ccccc3OC)[C@@H](C)C2)n1` [Compound 28, (S)-2-((2-(4-(2-methoxyphenyl)-3-methylpiperazin-1-yl)-2-oxoethyl)thio)-6-propylpyrimidin-4(3H)-one], half-maximal inhibition in experiment [1] (IC50) required 85 nM. This molecule also displayed an EC50 in experiment [2] of 108 nM.
On the same counts, the results for `Cc1[nH]c2nc(C(C)N3CCN(c4ccccc4)CC3)nn2c(=O)c1Cc1ccc(F)cc1` (centres unmarked) [Compound 19, 6-(4-fluorobenzyl)-5-methyl-2-(1-(4-phenylpiperazin-1-yl)ethyl)-[1,2,4]triazolo[1,5-a]pyrimidin-7(4H)-one] are 8.9 nM and 56.9 nM.
On the same counts, the results for `Cc1[nH]c2nc(CN3CCN(c4nccs4)CC3)nn2c(=O)c1Cc1cccc(Cl)c1` [Compound 26, 6-(3-chlorobenzyl)-5-methyl-2-((4-(thiazol-2-yl)piperazin-1-yl)methyl)-[1,2,4]triazolo[1,5-a] pyrimidin-7(3H)-one] are 23.5 nM and 530 nM.
With `Cc1[nH]c2nc(C(C)N3CCN(c4ccccc4)CC3)nn2c(=O)c1Cc1cc(F)c(F)cc1F` (centres unmarked) [Compound 7, 5-methyl-2-(1-(4-phenylpiperazin-1-yl)ethyl)-6-(2,4,5-trifluorobenzyl)-[1,2,4]triazolo[1,5-a]pyrimidin-7(4H)-one], the IC50 in experiment [1] was 4.1 nM. Further, the EC50 in experiment [2] came out at 7 nM.
Molecule `Cc1[nH]c2nc(C(C)N3CCN(c4ccccc4)CC3)nn2c(=O)c1Cc1cccc(F)c1` (centres unmarked) [Compound 10, 6-(3-fluorobenzyl)-5-methyl-2-(1-(4-phenylpiperazin-1-yl)ethyl)-[1,2,4]triazolo[1,5-a]pyrimidin-7(4H)-one] yielded an IC50 in experiment [1] of 7.9 nM. In experiment [2], this molecule showed an EC50 of 77.4 nM.
`COc1ccccc1N1CCN(C(=O)CSc2nc(C(C)C)cc(=O)[nH]2)C[C@H]1C` [Compound 53, (R)-6-isopropyl-2-((2-(4-(2-methoxyphenyl)-3-methylpiperazin-1-yl)-2-oxoethyl)thio)pyrimidin-4(3H)-one] yielded an IC50 in experiment [1] of 52.5 nM. A half-maximal response in experiment [2] (EC50) required 207 nM.
In turn, `COc1ccc(Cc2c(C)[nH]c3nc(C(C)N4CCN(c5ccccc5)CC4)nn3c2=O)cc1` (centres unmarked) [Compound 18, 6-(4-methoxybenzyl)-5-methyl-2-(1-(4-phenylpiperazin-1-yl)ethyl)-[1,2,4]triazolo[1,5-a] pyrimidin-7(4H)-one] registered a half-maximal inhibitory concentration (IC50) in experiment [1] of 1.7 nM. The response in experiment [2] was half-maximal at 280 nM (EC50).
In turn, `Cc1[nH]c2nc(C(C)N3CCN(c4ccccc4)[C@H](C)C3)nn2c(=O)c1Cc1ccc(F)cc1` (stereo partly drawn) [Compound 54, 6-(4-fluorobenzyl)-5-methyl-2-(1-((R)-3-methyl-4-phenylpiperazin-1-yl)ethyl)-[1,2,4]triazolo [1,5-a]pyrimidin-7(4H)-one] had a half-maximal inhibitory concentration (IC50) in experiment [1] of 31.8 nM. The same molecule returned a concentration giving a half-maximal response (EC50) in experiment [2] of 248 nM.
`Cc1ccc(Cc2c(C)[nH]c3nc(C(C)N4CCN(c5ccccc5)CC4)nn3c2=O)cc1` (centres unmarked) [Compound 17, 5-methyl-6-(4-methylbenzyl)-2-(1-(4-phenylpiperazin-1-yl)ethyl)-[1,2,4]triazolo[1,5-a] pyrimidin-7(4H)-one] yielded an IC50 in experiment [1] of 12 nM. The midpoint of the response in experiment [2], the EC50, lay at 104 nM.
For the molecule `Cc1[nH]c2nc(C(C)N3CCN(c4ccccc4)CC3)nn2c(=O)c1Cc1ccc(Cl)cc1` (centres unmarked) [Compound 20, 6-(4-chlorobenzyl)-5-methyl-2-(1-(4-phenylpiperazin-1-yl)ethyl)-[1,2,4]triazolo[1,5-a]pyrimidin-7(4H)-one], the IC50 in experiment [1] came to 17.2 nM. In experiment [2], this molecule had an EC50 of 161 nM.
The molecule `Cc1[nH]c2nc(C=C3CCN(c4ccccc4)CC3)nn2c(=O)c1Cc1cccc(Cl)c1` [Compound 34, 6-(3-chlorobenzyl)-5-methyl-2-((1-phenylpiperidin-4-ylidene)methyl)-[1,2,4]triazolo[1,5-a] pyrimidin-7(4H)-one] yielded an IC50 in experiment [1] of 60.2 nM. In experiment [2], this molecule displayed an EC50 of 427 nM.
Consider `COc1ccccc1N1CCN(Cc2nc3[nH]c(C)c(Cc4cccc(Cl)c4)c(=O)n3n2)CC1` [Compound 32, 6-(3-chlorobenzyl)-2-((4-(2-methoxyphenyl)piperazin-1-yl)methyl)-5-methyl-[1,2,4]triazolo[1,5-a]pyrimidin-7(3H)-one], for which 0.5 nM corresponded to half-maximal inhibition in experiment [1] (IC50). The same molecule showed an EC50 in experiment [2] of 174 nM.
Take `CCCc1cc(=O)[nH]c(SCC(=O)N2CCN(c3nccs3)CC2)n1` [Compound 46, 2-((2-oxo-2-(4-(thiazol-2-yl)piperazin-1-yl)ethyl)thio)-6-propylpyrimidin-4(3H)-one]: the 50% inhibitory concentration (IC50) in experiment [1] is 86.9 nM. In experiment [2], the EC50 worked out at 119 nM.
`CC(C)c1cc(=O)[nH]c(SCC(=O)N2CCN(c3nccs3)[C@@H](C)C2)n1` [Compound 2, (S)-6-isopropyl-2-((2-(3-methyl-4-(thiazol-2-yl)piperazin-1-yl)-2-oxoethyl)thio)pyrimidin-4(3H)-one] had an IC50 in experiment [1] of 43 nM. Further, the EC50 in experiment [2] was determined as 112 nM.
In the case of `COc1ccc(Cc2c(C)[nH]c3nc(C(C)N4CCN(c5ccccc5)CC4)nn3c2=O)c(F)c1` (centres unmarked) [Compound 5, 6-(2-fluoro-4-methoxybenzyl)-5-methyl-2-(1-(4-phenylpiperazin-1-yl)ethyl)-[1,2,4]triazolo[1,5-a]pyrimidin-7(4H)-one], in experiment [1], the midpoint of inhibition, the IC50, lay at 12.6 nM. In experiment [2], this molecule showed an EC50 of 40.5 nM.
For the molecule `Cc1[nH]c2nc(CN3CCN(c4ccccc4)CC3)nn2c(=O)c1Cc1cccc(Cl)c1F` [Compound 6, 6-(3-chloro-2-fluorobenzyl)-5-methyl-2-((4-phenylpiperazin-1-yl)methyl)-[1,2,4]triazolo[1,5-a]pyrimidin-7(3H)-one], half-maximal inhibition in experiment [1] (IC50) was put at 0.02 nM. Besides, in experiment [2], it took 300 nM to reach a half-maximal effect (EC50).
For `Cc1[nH]c2nc(C(C)N3CCN(c4ccccc4)CC3)nn2c(=O)c1Cc1cccc(C(F)(F)F)c1` (centres unmarked) [Compound 13, 5-methyl-2-(1-(4-phenylpiperazin-1-yl)ethyl)-6-(3-(trifluoromethyl)benzyl)-[1,2,4]triazolo[1,5-a]pyrimidin-7(4H)-one], in experiment [1], the IC50 stood at 61.9 nM. Besides, the EC50 in experiment [2] was found to be 19.2 nM.
`Cc1[nH]c2nc(C(C)N3CCN(c4ccccc4)CC3)nn2c(=O)c1Cc1cccc(Cl)c1` (centres unmarked) [Compound 11, 6-(3-chlorobenzyl)-5-methyl-2-(1-(4-phenylpiperazin-1-yl)ethyl)-[1,2,4]triazolo[1,5-a]pyrimidin-7(3H)-one] showed an IC50 in experiment [1] of 54.3 nM. The same molecule had an EC50 in experiment [2] of 61.4 nM.
For `COc1ccc(Cc2c(C)[nH]c3nc(C(C)N4CCN(c5ccccc5)CC4)nn3c2=O)cc1F` (centres unmarked) [Compound 15, 6-(3-fluoro-4-methoxybenzyl)-5-methyl-2-(1-(4-phenylpiperazin-1-yl)ethyl)-[1,2,4]triazolo[1,5-a]pyrimidin-7(4H)-one], the IC50 in experiment [1] was found to be 33.9 nM. The 50% effective concentration (EC50) in experiment [2] was 64.5 nM.
